Results: patent US20110054028A1, “SUPPLEMENT FOR REDUCING HIV TR[…] METHOD THEREOF” (priority 2009, published 2011)

Test system: HIV-1 (NL4-3) viral release in HeLa cells
Experiment: HIV-1 viral release in HeLa cells transfected with NL4-3 (p24 antigen assay)
Assay type: cell-based
Settings: HeLa cells expressing NL4-3
Description: HeLa cells at 50% confluency in P25 flasks were transiently transfected with 2-3 μg of one of the HIV-1 proviral constructs (pNL4-3; pNL4-3/Udel). One-tenth of the culture media was retrieved from each sample and filtered through a 0.22-μm syringe filter at each time point. Cells were collected at the end and subjected to whole-cell lysis by 1% SDS. The viral content in culture media and in cell lysates was determined by Coulter HIV-1 p24 Antigen Assay kit. Virus release was compared to that from the control (co-transfection of pNL4-3 and pCGI). Data are expressed as mean±SEM from 8 independent experiments.
For the inhibitory effects of K2P channel, different quantities (0.02-10 μM) of arachidonic acid (Sigma) were tested in HeLa cell culture at the 24th hour post-transfection of NL4-3, and one-tenth of the media was retrieved and filtered at each time point. Viral release was compared to that of the untreated HeLa cell set at 100% (control).
Referring to FIG. 3, the inhibitory effects of HIV-1 viral release in HeLa cells at the 4th hour after arachidonic acid (AA) supplementation were shown. […] Moreover, 50-60% of the release inhibition could be achieved by AA at 0.5×10^−7˜10^−6 M.

CCCCC/C=C\C/C=C\C/C=C\C/C=C\CCCC(=O)O [AA, arachidonic acid]
release inhibition (HIV-1 viral release) (4th hour after AA supplementation, AA at 0.5×10^−7˜10^−6 M, untreated HeLa cell set at 100%): 50-60%
suppression of viral release (submicromolar concentrations, 4th hour after supplementation): could suppress viral release
